# What was measured:
# Experiment in all cases: relative viability (nuclei count vs DMSO), 5 days (fraction); higher = more cells survive
# [1] = compound: C1=CC=C2C(=C1)N=C(S2)C(C#N)C3=NC(=NC=C3)NCCC4=CN=CC=C4 + CCNC(=O)c1noc(-c2cc(C(C)C)c(O)cc2O)c1-c1ccc(CN2CCOCC2)cc1 [Luminespib] (partner 0.01 µM)
# Outline: (§1)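 Values are medians from duplicate plates. Each reflects relative viability, defined as the nuclei count of treated wells over that of vehicle wells. Lung cancer cell lines in 1536-well plates were pin-tool dosed one day after seeding with one drug alone or with a fixed anchor-drug dose plus five library-drug doses (not always all listed) in √10 steps, then fixed, stained and imaged at 4× after 5 days.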
# [2] = compound: C#Cc1cccc(Nc2ncnc3cc(OC)c(OCCCCCCC(=O)NO)cc23)c1 [CUDC-101] + Cc1nc(Nc2ncc(C(=O)Nc3c(C)cccc3Cl)s2)cc(N2CCN(CCO)CC2)n1 [Dasatinib] (partner 0.075 µM)
# Outline: as §1
# [3] = compound: COc1cc2/c(=N/c3ccc(Br)cc3F)nc[nH]c2cc1OCC1CCN(C)CC1 [Vandetanib] + C[C@@H](Oc1cc(-c2cnn(C3CCNCC3)c2)cnc1N)c1c(Cl)ccc(F)c1Cl [Crizotinib] (partner 1 µM)
# Outline: as §1
# [4] = compound: COc1cc2/c(=N/c3ccc(Br)cc3F)nc[nH]c2cc1OCC1CCN(C)CC1 [Vandetanib] + CC1(C)CCC(c2ccc(Cl)cc2)=C(CN2CCN(c3ccc(C(=O)NS(=O)(=O)c4ccc(N[C@H](CCN5CCOCC5)CSc5ccccc5)c(S(=O)(=O)C(F)(F)F)c4)cc3)CC2)C1 [Navitoclax] (partner 0.5 µM)
# Outline: as §1
cell line,measurement,setting,value
UMC-11,relative viability,[1]; first compound 0.005 µM,0.735
same,relative viability,[1]; first compound 0.01581 µM,1.04
same,relative viability,[1]; first compound 0.05 µM,0.861
same,relative viability,[1]; first compound 0.1581 µM,1.03
same,relative viability,[1]; first compound 0.5 µM,0.957
same,relative viability,[2]; first compound 0.01 µM,0.436
same,relative viability,[2]; first compound 0.03162 µM,0.406
same,relative viability,[2]; first compound 0.1 µM,0.35
same,relative viability,[2]; first compound 0.3162 µM,0.227
same,relative viability,[2]; first compound 1 µM,0.0988
same,relative viability,[3]; first compound 0.02 µM,0.588
same,relative viability,[3]; first compound 0.06325 µM,0.654
same,relative viability,[3]; first compound 0.2 µM,0.632
same,relative viability,[3]; first compound 0.6325 µM,0.494
same,relative viability,[3]; first compound 2 µM,0.61
same,relative viability,[4]; first compound 0.02 µM,0.312
same,relative viability,[4]; first compound 0.06325 µM,0.311
same,relative viability,[4]; first compound 0.2 µM,0.286
same,relative viability,[4]; first compound 0.6325 µM,0.308
same,relative viability,[4]; first compound 2 µM,0.309

# Reference: the supplement of paper PMC10307832
